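Protocol summary: plate cells (96-well), add compound at 5 concentrations, incubate 48 h, interpolate endpoints linearly. The concentration for 50% growth inhibition is given as GI50. TGI: total growth inhibition.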
How the values were obtained:
Test in all cases: growth of human tumour cells (NCI), 48 h
786-0 renal = system: 786-0 renal
A498 renal = system: A498 renal
A549 NSCLC = system: A549 NSCLC
ACHN renal = system: ACHN renal
BT-549 breast = system: BT-549 breast
CAKI-1 renal = system: CAKI-1 renal
CCRF-CEM leukemia = system: CCRF-CEM leukemia
COLO 205 colon = system: COLO 205 colon
DU-145 prostate = system: DU-145 prostate
EKVX NSCLC = system: EKVX NSCLC
HCC-2998 colon = system: HCC-2998 colon
HCT-116 colon = system: HCT-116 colon
HCT-15 colon = system: HCT-15 colon
HL-60(TB) leukemia = system: HL-60(TB) leukemia
HOP-62 NSCLC = system: HOP-62 NSCLC
HOP-92 NSCLC = system: HOP-92 NSCLC
HT29 colon = system: HT29 colon
IGROV1 ovarian = system: IGROV1 ovarian
K-562 leukemia = system: K-562 leukemia
KM12 colon = system: KM12 colon
LOX IMVI melanoma = system: LOX IMVI melanoma
M14 melanoma = system: M14 melanoma
MALME-3M melanoma = system: MALME-3M melanoma
MDA-MB-231 breast = system: MDA-MB-231 breast
MDA-MB-435 = system: MDA-MB-435
MOLT-4 leukemia = system: MOLT-4 leukemia
NCI-H23 lung = system: NCI-H23 lung
NCI-H460 lung = system: NCI-H460 lung
NCI-H522 lung = system: NCI-H522 lung
NCI/ADR-RES ovarian = system: NCI/ADR-RES ovarian
OVCAR-4 ovarian = system: OVCAR-4 ovarian
OVCAR-5 ovarian = system: OVCAR-5 ovarian
OVCAR-8 ovarian = system: OVCAR-8 ovarian
PC-3 prostate = system: PC-3 prostate
RPMI-8226 leukemia = system: RPMI-8226 leukemia
RXF 393 renal = system: RXF 393 renal
SF-268 CNS = system: SF-268 CNS
SF-295 CNS = system: SF-295 CNS
SF-539 CNS = system: SF-539 CNS
SK-MEL-2 melanoma = system: SK-MEL-2 melanoma
SK-MEL-28 melanoma = system: SK-MEL-28 melanoma
SK-MEL-5 melanoma = system: SK-MEL-5 melanoma
SK-OV-3 ovarian = system: SK-OV-3 ovarian
SN12C renal = system: SN12C renal
SNB-19 CNS = system: SNB-19 CNS
SNB-75 CNS = system: SNB-75 CNS
SR leukemia = system: SR leukemia
SW-620 colon = system: SW-620 colon
T-47D breast = system: T-47D breast
TK-10 renal = system: TK-10 renal
U251 CNS = system: U251 CNS
UACC-257 melanoma = system: UACC-257 melanoma
UACC-62 melanoma = system: UACC-62 melanoma
UO-31 renal = system: UO-31 renal

With CCc1cc(OC(=O)N2CCC(N3CCCCC3)CC2)ccc1Nc1cc(-c2ccc(-n3cccn3)cc2)[nH]n1 the GI50 (786-0 renal) was 1550 nM, the TGI (786-0 renal) was 2980 nM and the GI50 (A498 renal) was 1400 nM. The TGI (A498 renal) was 2810 nM, the GI50 (A549 NSCLC) was 1210 nM and the TGI (A549 NSCLC) was 2660 nM. The GI50 (ACHN renal) was 1720 nM, the TGI (ACHN renal) was 3100 nM and the GI50 (BT-549 breast) was 1580 nM. For the same compound, the TGI (BT-549 breast) was 2950 nM, the GI50 (CAKI-1 renal) was 1550 nM and the TGI (CAKI-1 renal) was 3450 nM. For the same compound, the GI50 (CCRF-CEM leukemia) was 2950 nM, the TGI (CCRF-CEM leukemia) was 21600 nM and the GI50 (COLO 205 colon) was 1790 nM. The TGI (COLO 205 colon) was 3270 nM, the GI50 (DU-145 prostate) was 1910 nM and the TGI (DU-145 prostate) was 4170 nM. For the same compound, the GI50 (EKVX NSCLC) was 2160 nM, the TGI (EKVX NSCLC) was 5860 nM and the GI50 (HCC-2998 colon) was 1750 nM. For the same compound, the TGI (HCC-2998 colon) was 3330 nM, the GI50 (HCT-116 colon) was 1450 nM and the TGI (HCT-116 colon) was 2830 nM. For the same compound, the GI50 (HCT-15 colon) was 1360 nM, the TGI (HCT-15 colon) was 2830 nM and the GI50 (HL-60(TB) leukemia) was 1710 nM. It also gave a TGI (HL-60(TB) leukemia) of 4520 nM, a GI50 (HOP-62 NSCLC) of 1840 nM and a TGI (HOP-62 NSCLC) of 3700 nM. For the same compound, the GI50 (HOP-92 NSCLC) was 1450 nM, the TGI (HOP-92 NSCLC) was 3230 nM and the GI50 (HT29 colon) was 1270 nM. For the same compound, the TGI (HT29 colon) was 2740 nM, the GI50 (IGROV1 ovarian) was 1930 nM and the TGI (IGROV1 ovarian) was 4040 nM. It also gave a GI50 (K-562 leukemia) of 1130 nM, a TGI (K-562 leukemia) of 5070 nM and a GI50 (KM12 colon) of 2110 nM. For the same compound, the TGI (KM12 colon) was 4290 nM, the GI50 (LOX IMVI melanoma) was 1660 nM and the TGI (LOX IMVI melanoma) was 3170 nM. For the same compound, the GI50 (M14 melanoma) was 1830 nM, the TGI (M14 melanoma) was 3300 nM and the GI50 (MALME-3M melanoma) was 1670 nM. It also gave a TGI (MALME-3M melanoma) of 3210 nM, a GI50 (MDA-MB-231 breast) of 1900 nM and a TGI (MDA-MB-231 breast) of 3570 nM. It also gave a GI50 (MDA-MB-435) of 1770 nM, a TGI (MDA-MB-435) of 3340 nM and a GI50 (MOLT-4 leukemia) of 2160 nM. For the same compound, the TGI (MOLT-4 leukemia) was 11000 nM, the GI50 (NCI-H23 lung) was 1820 nM and the TGI (NCI-H23 lung) was 3900 nM. For the same compound, the GI50 (NCI-H460 lung) was 1580 nM, the TGI (NCI-H460 lung) was 3160 nM and the GI50 (NCI-H522 lung) was 1850 nM. The TGI (NCI-H522 lung) was 3510 nM, the GI50 (NCI/ADR-RES ovarian) was 2940 nM and the TGI (NCI/ADR-RES ovarian) was 9890 nM. For the same compound, the GI50 (OVCAR-4 ovarian) was 2220 nM, the TGI (OVCAR-4 ovarian) was 5340 nM and the GI50 (OVCAR-5 ovarian) was 1830 nM. The TGI (OVCAR-5 ovarian) was 4020 nM, the GI50 (OVCAR-8 ovarian) was 1800 nM and the TGI (OVCAR-8 ovarian) was 3830 nM. The GI50 (PC-3 prostate) was 1730 nM, the TGI (PC-3 prostate) was 3650 nM and the GI50 (RPMI-8226 leukemia) was 2030 nM. For the same compound, the TGI (RPMI-8226 leukemia) was 5620 nM, the GI50 (RXF 393 renal) was 1450 nM and the TGI (RXF 393 renal) was 2890 nM. For the same compound, the GI50 (SF-268 CNS) was 1820 nM, the TGI (SF-268 CNS) was 3730 nM and the GI50 (SF-295 CNS) was 1660 nM. The TGI (SF-295 CNS) was 3200 nM, the GI50 (SF-539 CNS) was 1730 nM and the TGI (SF-539 CNS) was 3270 nM. It also gave a GI50 (SK-MEL-2 melanoma) of 1830 nM, a TGI (SK-MEL-2 melanoma) of 3330 nM and a GI50 (SK-MEL-28 melanoma) of 1730 nM. It also gave a TGI (SK-MEL-28 melanoma) of 3270 nM, a GI50 (SK-MEL-5 melanoma) of 1720 nM and a TGI (SK-MEL-5 melanoma) of 3120 nM. For the same compound, the GI50 (SK-OV-3 ovarian) was 1930 nM, the TGI (SK-OV-3 ovarian) was 3470 nM and the GI50 (SN12C renal) was 1840 nM. For the same compound, the TGI (SN12C renal) was 3710 nM, the GI50 (SNB-19 CNS) was 1950 nM and the TGI (SNB-19 CNS) was 4110 nM. The GI50 (SNB-75 CNS) was 1660 nM, the TGI (SNB-75 CNS) was 4220 nM and the GI50 (SR leukemia) was 1490 nM. The TGI (SR leukemia) was 4600 nM, the GI50 (SW-620 colon) was 1860 nM and the TGI (SW-620 colon) was 3510 nM. The GI50 (T-47D breast) was 1610 nM, the TGI (T-47D breast) was 3510 nM and the GI50 (TK-10 renal) was 1410 nM. The TGI (TK-10 renal) was 3450 nM, the GI50 (U251 CNS) was 1580 nM and the TGI (U251 CNS) was 2990 nM. The GI50 (UACC-257 melanoma) was 1820 nM, the TGI (UACC-257 melanoma) was 3440 nM and the GI50 (UACC-62 melanoma) was 1920 nM. It also gave a TGI (UACC-62 melanoma) of 3960 nM, a GI50 (UO-31 renal) of 1560 nM and a TGI (UO-31 renal) of 3600 nM.

From PubChem BioAssay (NCI)
